Measured values: patent US8580965B2, “Substituted sulfonamide compounds” (Gruenenthal GmbH, priority 2006, dated 2013)

Assays:
[1] = molecular target: T1, human B1R receptor (bradykinin 1 receptor) (Homo sapiens, UniProt P46663); assay: FLIPR Ca2+ assay (Fluo-4) on CHO K1 cells stably transfected with the human B1R gene; % activation and % inhibition at 10 μM; type: cell-based; conditions: CHO-K1, test substance 10 μM; CHO K1 hB1R cells; Ca2+ inflow after 0.5 nM Lys-Des-Arg9-bradykinin; read-out: B1R antagonism, human [10 μM] % inhibition
T1 construct: host or cells: CHO K1 cells (hB1R cells)
T1 sequence (P46663 1-353): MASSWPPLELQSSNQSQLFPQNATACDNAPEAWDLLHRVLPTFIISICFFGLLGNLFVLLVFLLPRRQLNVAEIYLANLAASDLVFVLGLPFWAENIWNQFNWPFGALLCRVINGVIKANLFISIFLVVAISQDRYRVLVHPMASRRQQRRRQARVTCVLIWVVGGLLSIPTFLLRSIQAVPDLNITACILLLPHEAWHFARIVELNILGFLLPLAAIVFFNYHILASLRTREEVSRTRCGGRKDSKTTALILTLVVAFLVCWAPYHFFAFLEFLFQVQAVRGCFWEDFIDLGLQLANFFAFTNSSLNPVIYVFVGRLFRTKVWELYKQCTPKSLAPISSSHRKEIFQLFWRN
Method in brief: (§1)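 CHO K1 cells stably expressing human or rat B1R, Fluo-4 loaded, read by FLIPR (peak fluorescence). Compound at 10 µM first gives % activation versus agonist; after 10 min, agonist (human: 0.5 nM Lys-Des-Arg9-bradykinin; rat: 100 nM Des-Arg9-bradykinin) gives % inhibition relative to maximal inhibition.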

[2] = molecular target: T2, B1R receptor of the rat (bradykinin 1 receptor) (Rattus norvegicus, UniProt P97583); assay: FLIPR Ca2+ assay (Fluo-4) on CHO K1 cells stably transfected with the B1R gene of the rat; % activation and % inhibition at 10 μM; type: cell-based; conditions: CHO-K1, test substance 10 μM; CHO K1 rB1R cells; Ca2+ inflow after 100 nM Des-Arg9-bradykinin; read-out: B1R antagonism, rat [10 μM] % inhibition
T2 construct: host or cells: CHO K1 cells (rB1R cells)
T2 sequence (P97583 1-337): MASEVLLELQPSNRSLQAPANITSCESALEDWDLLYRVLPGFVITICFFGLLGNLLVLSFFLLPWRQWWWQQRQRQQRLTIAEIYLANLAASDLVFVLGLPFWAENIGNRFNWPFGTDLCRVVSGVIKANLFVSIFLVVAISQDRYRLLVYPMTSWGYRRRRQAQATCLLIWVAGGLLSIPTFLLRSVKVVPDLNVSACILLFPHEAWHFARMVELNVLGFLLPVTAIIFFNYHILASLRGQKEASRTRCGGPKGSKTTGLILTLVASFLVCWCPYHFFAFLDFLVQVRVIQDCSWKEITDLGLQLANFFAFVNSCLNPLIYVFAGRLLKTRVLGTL
Method in brief: as §1

| SMILES | inhibition at 10 µM [1] [%] | inhibition at 10 µM [2] [%] |
| --- | --- | --- |
| O=C(COCC1CCCCN1S(=O)(=O)c1ccccc1C(F)(F)F)N1CCC(O)(c2cccc(C(F)(F)F)c2)CC1 (centres unmarked) [Example 177, 1-(4-hydroxy-4-(3-(trifluoromethyl)phenyl)piperidin-1-yl)-2-((1-(2-(trifluoromethyl)phenylsulfonyl)piperidin-2-yl)methoxy)ethanone] | 101 | 104 |
| O=C(COCC1CCCCN1S(=O)(=O)c1ccccc1C(F)(F)F)N1CCC(O)(c2ccc(Cl)c(C(F)(F)F)c2)CC1 (centres unmarked) [Example 178, 1-(4-(4-chloro-3-(trifluoromethyl)phenyl)-4-hydroxypiperidin-1-yl)-2-((1-(2-(trifluoromethyl)phenylsulfonyl)piperidin-2-yl)methoxy)ethanone] | 89.4 | 104 |
| COc1cc(C)c(S(=O)(=O)N2CCCC2COCC(=O)N2CCC(O)(c3cccnc3)CC2)c(C)c1 (centres unmarked) [Example 193, 1-(4-hydroxy-4-(pyridin-3-yl)piperidin-1-yl)-2-((1-(4-methoxy-2,6-dimethylphenylsulfonyl)pyrrolidin-2-yl)methoxy)ethanone] | 104 | 96.6 |
| COc1cc(C)c(S(=O)(=O)N2CCC(COCC(=O)N3CCC(O)(c4cccnc4)CC3)C2)c(C)c1 (centres unmarked) [Example 194, 1-(4-hydroxy-4-(pyridin-3-yl)piperidin-1-yl)-2-((1-(4-methoxy-2,6-dimethylphenylsulfonyl)pyrrolidin-3-yl)methoxy)ethanone] | 104 | 82.8 |
| COc1cc(C)c(S(=O)(=O)N2Cc3ccccc3CC2COCC(=O)N2CCC(O)(c3cccnc3)CC2)c(C)c1C (centres unmarked) [Example 195, 1-(4-hydroxy-4-(pyridin-3-yl)piperidin-1-yl)-2-((2-(4-methoxy-2,3,6-trimethylphenylsulfonyl)-1,2,3,4-tetrahydroisoquinolin-3-yl)methoxy)ethanone] | 97.8 | 93.5 |
| O=C(COCC1CCCCN1S(=O)(=O)c1c(Cl)cccc1Cl)N1CCC(O)(c2cccnc2)CC1 (centres unmarked) [Example 196, 2-((1-(2,6-dichlorophenylsulfonyl)piperidin-2-yl)methoxy)-1-(4-hydroxy-4-(pyridin-3-yl)piperidin-1-yl)ethanone] | 103 | 96.5 |
| O=C(COCC1CCCN1S(=O)(=O)c1c(Cl)cccc1Cl)N1CCC(O)(c2cccnc2)CC1 (centres unmarked) [Example 197, 2-((1-(2,6-dichlorophenylsulfonyl)pyrrolidin-2-yl)methoxy)-1-(4-hydroxy-4-(pyridin-3-yl)piperidin-1-yl)ethanone] | 103 | 96.4 |
| Cc1cc(Cl)cc(Cl)c1S(=O)(=O)N(C)CCOCC(=O)N1CCC(O)(c2ccccn2)CC1 [Example 198, 2,4-dichloro-N-(2-(2-(4-hydroxy-4-(pyridin-2-yl)piperidin-1-yl)-2-oxoethoxy)ethyl)-N,6-dimethylphenylsulfonamide] | 106 | 99.2 |
| Cc1cc(S(=O)(=O)N(C)CCOCC(=O)N2CCC(O)(c3cccnc3)CC2)c(Cl)cc1Cl [Example 199, 2,4-dichloro-N-(2-(2-(4-hydroxy-4-(pyridin-3-yl)piperidin-1-yl)-2-oxoethoxy)ethyl)-N,5-dimethylphenylsulfonamide] | 105 | 98.2 |
| Cc1cc(C)c(S(=O)(=O)N2Cc3ccccc3CC2COCC(=O)N2CCC(O)(c3ccc(Cl)cc3)CC2)c(C)c1 (centres unmarked) [Example 200, 1-(4-(4-chlorophenyl)-4-hydroxypiperidin-1-yl)-2-((2-(mesitylsulfonyl)-1,2,3,4-tetrahydroisoquinolin-3-yl)methoxy)ethanone] | 29.8 | 98.1 |
| Cc1cc(C)c(S(=O)(=O)N2Cc3ccccc3CC2COCC(=O)N2CCC(O)(Cc3ccccc3)CC2)c(C)c1 (centres unmarked) [Example 201, 1-(4-benzyl-4-hydroxypiperidin-1-yl)-2-((2-(mesitylsulfonyl)-1,2,3,4-tetrahydroisoquinolin-3-yl)methoxy)ethanone] | 14.9 | 80 |
| COc1cc(C)c(S(=O)(=O)N2CCC(COCC(=O)N3CCC(O)(c4ccc(Cl)cc4)CC3)C2)c(C)c1 (centres unmarked) [Example 202, 1-(4-(4-chlorophenyl)-4-hydroxypiperidin-1-yl)-2-((1-(4-methoxy-2,6-dimethylphenylsulfonyl)pyrrolidin-3-yl)methoxy)ethanone] | 99.2 | 98.5 |
| O=C(COCC1CCCN1S(=O)(=O)c1cc(Cl)sc1Cl)N1CCC(O)(c2cccnc2)CC1 (centres unmarked) [Example 203, 2-((1-(2,5-dichlorothiophen-3-ylsulfonyl)pyrrolidin-2-yl)methoxy)-1-(4-hydroxy-4-(pyridin-3-yl)piperidin-1-yl)ethanone] | 84.2 | 85.1 |
| O=C(COCC1CCCN1S(=O)(=O)c1c(Cl)cc(Cl)cc1Cl)N1CCC(O)(c2cccnc2)CC1 (centres unmarked) [Example 204, 1-(4-hydroxy-4-(pyridin-3-yl)piperidin-1-yl)-2-((1-(2,4,6-trichlorophenylsulfonyl)pyrrolidin-2-yl)methoxy)ethanone] | 104 | 98 |
| COc1cc(C)c(S(=O)(=O)N(CCOCC(=O)N2CCC(O)(c3ccc(Br)cc3)CC2)CC2CC2)c(C)c1C [Example 205, N-(2-(2-(4-(4-bromophenyl)-4-hydroxypiperidin-1-yl)-2-oxoethoxy)ethyl)-N-(cyclopropylmethyl)-4-methoxy-2,3,6-trimethylphenylsulfonamide] | 106 | 100 |
| COc1cc(C)c(S(=O)(=O)N(CCOCC(=O)N2CCC(O)(c3ccccc3)CC2)CC2CC2)c(C)c1C [Example 206, N-(cyclopropylmethyl)-N-(2-(2-(4-hydroxy-4-phenylpiperidin-1-yl)-2-oxoethoxy)ethyl)-4-methoxy-2,3,6-trimethylphenylsulfonamide] | 105 | 100 |
| COc1cc(C)c(S(=O)(=O)N(CCOCC(=O)N2CCC(O)(Cc3ccccc3)CC2)CC2CC2)c(C)c1C [Example 207, N-(2-(2-(4-benzyl-4-hydroxypiperidin-1-yl)-2-oxoethoxy)ethyl)-N-(cyclopropylmethyl)-4-methoxy-2,3,6-trimethylphenylsulfonamide] | 94.2 | 99.2 |
| COc1cc(C)c(S(=O)(=O)N(CCOCC(=O)N2CCC(O)(c3cccc(C(F)(F)F)c3)CC2)CC2CC2)c(C)c1C [Example 208, N-(cyclopropylmethyl)-N-(2-(2-(4-hydroxy-4-(3-(trifluoromethyl)phenyl)-piperidin-1-yl)-2-oxoethoxy)ethyl)-4-methoxy-2,3,6-trimethylphenylsulfonamide] | 106 | 100 |
| COc1cc(C)c(S(=O)(=O)N(CCOCC(=O)N2CCC(O)(c3ccc(Cl)cc3)CC2)CC(C)C)c(C)c1C [Example 209, N-(2-(2-(4-(4-chlorophenyl)-4-hydroxypiperidin-1-yl)-2-oxoethoxy)ethyl)-N-isobutyl-4-methoxy-2,3,6-trimethylphenylsulfonamide] | 105 | 100 |
